Key:
[1] = test system: A549 cells; assay type: cell-based; conditions: 72 h incubation; mean ± SD of two or three independent experiments; read-out: metabolic activity IC50, A549
[2] = test system: A549-R cells (Taxol/Paclitaxel-resistant subclone); assay type: cell-based; conditions: 72 h incubation; mean ± SD of two or three independent experiments; read-out: metabolic activity IC50, A549-R
[3] = test system: K562 cells; assay type: cell-based; conditions: 72 h incubation; mean ± SD of two or three independent experiments; read-out: metabolic activity IC50, K562
[4] = test system: K562-R cells (Doxorubicin-resistant subclone); assay type: cell-based; conditions: 72 h incubation; mean ± SD of two or three independent experiments; read-out: metabolic activity IC50, K562-R
[5] = test system: MCF-7 cells; assay type: cell-based, human; conditions: 72 h incubation; mean ± SD of two or three independent experiments; read-out: metabolic activity IC50, MCF-7
[6] = test system: MCF-7TamR cells (Tamoxifen-resistant subline); assay type: cell-based, human; conditions: 72 h incubation; mean ± SD of two or three independent experiments; read-out: metabolic activity IC50, MCF-7TamR
[7] = test system: A2780 cells; assay type: cell-based, human; conditions: 72 h incubation; mean ± SD of two or three independent experiments; read-out: metabolic activity IC50, A2780
[8] = test system: A2780cis cells (Cisplatin-resistant); assay type: cell-based, human; conditions: 72 h incubation; mean ± SD of two or three independent experiments; read-out: metabolic activity IC50, A2780cis
[9] = test system: IGROV1 cells; assay type: cell-based; conditions: 72 h incubation; mean ± SD of two or three independent experiments; read-out: metabolic activity IC50, IGROV1
[10] = test system: IGROV1-CSC cells; assay type: cell-based; conditions: 72 h incubation; mean ± SD of two or three independent experiments; read-out: metabolic activity IC50, IGROV1-CSC
[11] = test system: SV-80 lung fibroblast cells; assay: Modified MTT assay in noncancerous cells; assay type: cell-based
[12] = HPLC reactivity study in chloride containing ACN/water; assay type: physicochemical
[13] = HPLC reactivity study with non-thiol containing amino acids in ACN/water; assay type: physicochemical; conditions: for formation of 8: t24h, 0.5 mM
Experimental: (§1) All nucleophiles (chloride, amino acids, and GSH) were separately reacted with 5–11 in ACN/water = 50/50 (v/v) mixtures at a complex concentration 0.5 mM. This solvent composition was chosen to prevent precipitation of the complex and the formed degradation products.
(§2) Amino acids, as well as GSH, were used in 20-fold excess, as realized at a complex concentration of 10 μM in the cell culture medium. Thereto, the respective complex, dissolved in ACN (1 mM), was combined with the same amount of aqueous solution of the nucleophile (20 mM).
(§3) The mixture was then incubated for 24 h at rt and monitored at various time points via HPLC using an RP-C18 column and gradient elution (70/30 (v/v) to 90/10 (v/v)) of ACN/water (0.1% trifluoroacetic acid (TFA)).
(§4) Experiments in ACN/water: 1.0 mM solutions of the respective complex were prepared in ACN and diluted with HPLC-grade water (50/50, (v/v)) containing the double-concentrated amount of respective amino acid (20 mM), GSH (20 mM), sodium ascorbate (20 mM), or NADPH (20 mM). As a chloride source, an aqueous solution of KCl 0.8 g/L and NaCl 12 g/L was used. In each case, a final complex concentration of 0.5 mM was achieved. The solutions were incubated for 24 h at rt. For the experiments with RPMI 1640, the aqueous phase was replaced by a cell culture medium.
(§5) Samples (20 μL each) were taken at appropriate time points (t = 0 (1.5 min), 0.5, 1, 1.5, 2, 8, 12, and 24 h) and analyzed with a Shimadzu prominence HPLC system. The mobile phase consisted of ACN (HPLC-grade) and water (HPLC-grade) with 0.1% TFA. To achieve a separation of the compounds, gradient elution from (70/30 (v/v) to 90/10 (v/v)) of ACN/water (0.1% trifluoroacetic acid (TFA)) was used with a flow rate of 1 mL/min at an oven temperature of 35 °C. All solvents have been degassed before use. The injection volume was 20 μL, and the detection wavelength was set at 235 nm, to detect the gold complexes and the amino acids in the chromatogram.

[14] = HPLC reactivity study with GSH in ACN/water; assay type: physicochemical; conditions: 20 equiv GSH; for substitution to (NHC)Au(I)-GSH adduct 12: t0h (1.5 min)
Experimental: as §1, §2, §3, §4, §5

[15] = FCS influence on stability of 7 in RPMI 1640 (protein binding, HPLC); assay type: in vitro ADME; conditions: 4 h, 37 °C
Experimental: The complex (conc. 30 μM) dissolved in RPMI 1640 medium supplemented with 10% FCS was incubated for 4 h at 37 °C in the dark. Subsequently, the proteins were precipitated with ACN and the supernatant was dried by lyophilization. The remaining complexes were extracted from the lyophilizate with DCM. The organic layer was evaporated, and the residue was finally dissolved in 1 mL of ACN. This solution was then analyzed by HPLC as described above.
To 11 mL of RPMI 1640 including 10% FCS, 11 μL of a freshly prepared 3 mM DMF solution of 7 was added. The solution was then incubated for 4 h at 37 °C in the dark. Proteins were precipitated with 33 mL of ACN. The mixture was cooled to −30 °C and stored for 2 h at −20 °C. Subsequently, the supernatant was separated by centrifugation (3000 rpm), collected, and dried by lyophilization. The lyophilizate was extracted three times with 5 mL of DCM and finally dried under reduced pressure. The residue was taken up in 1 mL of ACN, and 30 μL was analyzed by the HPLC method described above. Peak area was used for quantification. The calibrations of 5, 7, and 8 were obtained by injecting 30 μL of the respective solution of pure substances in ACN at a concentration of 1–30 μM (R^2 > 0.99).

[16] = HPLC degradation study in ACN/RPMI 1640 cell culture medium
[17] = HPLC reactivity study with sodium ascorbate; assay type: physicochemical; conditions: 24 h
Experimental: (§6) GSH caused only substitution reactions, without reduction of Au(I) to Au(0). […] Neither reduction to gold(0), release of the NHC ligand, nor coordination to the gold(I) center occurred.
as §4, §5

[18] = HPLC reactivity study with NADPH; assay type: physicochemical; conditions: 24 h
Experimental: as §6, §4, §5

[19] = HPLC control experiment with GSH in PBS; assay type: physicochemical; conditions: 20 equiv GSH in PBS
Experimental: The reduced transformation (compared to the direct reaction with GSH) might be the consequence of the high chloride concentration in the medium. To confirm this assumption, 5 was incubated in a control experiment with 20 equiv of GSH (as described above) in phosphate buffered saline (PBS). At t0h, 65.7% of 12 was formed. The amount increased during 24 h to 68.0% of 12 and 2.1% of 8 appeared (Figure S33).
as §4, §5

[20] = t24h, chloride containing ACN/water 50/50, 0.5 mM
[21] = t24h, ACN/RPMI 1640 50/50, 0.5 mM

| Substance | IC50 [1] | IC50 [2] | IC50 [3] | IC50 [4] | IC50 [5] | IC50 [6] | IC50 [7] | IC50 [8] | IC50 [9] | IC50 [10] | formation of 8 (ligand scrambling / reduction) [12, 20] | substitution to (NHC)Au(I)-GSH adduct 12 ([14]; ACN/water 50/50, 0.5 mM) | formation of 8 [16, 21] | formation of GSH-adduct 12 [16, 21] | further results |
| --- | --- | --- | --- | --- | --- | --- | --- | --- | --- | --- | --- | --- | --- | --- | --- |
| Iodido[1,3-diethyl-4,5-diphenyl-1H-imidazol-2-ylidene]gold(I) [Complex 7] | 1.12 ± 0.17 µM | 1.21 ± 0.36 µM | 0.72 ± 0.3 µM | 1.53 ± 1.04 µM | 0.48 ± 0.08 µM | 1.63 ± 0.79 µM | 1.43 ± 0.4 µM | 0.4 ± 0.06 µM | 1.94 ± 0.35 µM | 0.47 ± 0.13 µM | 18.9% | 9.7% | 23.1% | No GSH-adduct 12 could be detected | metabolic activity (remaining) in SV-80 cells ([11]; at 1.5 μM): 77%; conversion to 5 ([12]; t0h (1.5 min), ACN/water 50/50, 6.0 g/L NaCl + 0.4 g/L KCl, 0.5 mM complex, rt): 13.3%; formation of 8 ([12]; t0h (1.5 min), chloride containing ACN/water 50/50, 0.5 mM): 3.6%; quantity of 5 formed [12, 20]: stayed constant; ratio of 7/8 ([13]; 20 equiv arginine (Arg), after 30 min, stable until 24 h): 90/10; reaction with amino acids ([13]; 20 equiv non-thiol containing amino acid, ACN/water 50/50): did not react; formation of 8 ([13]; 20 equiv glutamic acid (Glu), ACN/water 50/50): 31.6%; formation of 8 ([13]; 20 equiv methionine (Met), ACN/water 50/50): 27.5%; formation of 8 ([13]; pure ACN/water 50/50): 31.2%; start of ligand scrambling ([14]; time-dependent analysis): 1 h; formation of 8 ([14]; t24h, ACN/water 50/50, 0.5 mM): 9.8%; proportion of 12 ([14]; t24h, ACN/water 50/50, 0.5 mM): 4.7%; concentration in the free fraction after incubation of 7 ([15]; 7 (30 μM) in RPMI 1640 + 10% FCS, dark, protein precipitation with ACN, from HPLC peak areas): 780 nM; protein-bound fraction ([15]; 7 and its degradation products in RPMI 1640 + 10% FCS): about 50%; amount of 5 formed ([16]; during 24 h, ACN/RPMI 1640 50/50): remained constant; conversion to 5 ([16]; t0h, ACN/RPMI 1640 50/50 (without FCS), 0.5 mM): 14.3%; formation of 8 ([16]; t0h, ACN/RPMI 1640 50/50, 0.5 mM): 0.8% |
| Chlorido[1,3-diethyl-4,5-diphenyl-1H-imidazol-2-ylidene]gold(I) [Complex 5] | > 10 µM | > 10 µM | > 10 µM | > 10 µM | 5.76 ± 0.88 µM | 4.95 ± 0.39 µM | 9.45 ± 0.96 µM | 4.08 ± 0.8 µM | 7.53 ± 1.9 µM | 9.18 ± 1.32 µM | 0.9% | quantitatively | 6.2% | 5.1% | metabolic activity (remaining) in SV-80 cells ([11]; at 10 μM, mean of three independent experiments): 64%; ligand scrambling to 8 [17]: 3.4%; ligand scrambling to 8 [18]: 5.6%; formation of 12 ([19]; t0h): 65.7%; formation of 8 ([19]; t24h): 2.1%; formation of 12 ([19]; t24h): 68.0% |

From paper PMC10291549, “Reaction Behavior of [1,3-Diethyl-4,5-diphenyl-1H-imidazol-2-ylidene] Containing Gold(I/III) Complexes against Ingredients of the Cell Culture Medium and the Meaning on the Potential Use for Cancer Eradication Therapy” (Journal of Medicinal Chemistry, 2023)
